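Dose response: 5 concentrations. Exposure: 48 h. Format: 96-well plates. Endpoint: linear interpolation; highest concentration if not reached. GI50 = concentration required for 50% inhibition of growth. TGI marks complete inhibition of growth.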
Assays:
Experiment in all cases: NCI tumour cell line growth inhibition, 48 h
[1] = system: 786-0 renal
[2] = system: A498 renal
[3] = system: A549 NSCLC
[4] = system: ACHN renal
[5] = system: BT-549 breast
[6] = system: CAKI-1 renal
[7] = system: CCRF-CEM leukemia
[8] = system: COLO 205 colon
[9] = system: DU-145 prostate
[10] = system: EKVX NSCLC
[11] = system: HCC-2998 colon
[12] = system: HCT-116 colon
[13] = system: HCT-15 colon
[14] = system: HL-60(TB) leukemia
[15] = system: HOP-62 NSCLC
[16] = system: HOP-92 NSCLC
[17] = system: HS 578T breast
[18] = system: HT29 colon
[19] = system: IGROV1 ovarian
[20] = system: K-562 leukemia
[21] = system: KM12 colon
[22] = system: LOX IMVI melanoma
[23] = system: M14 melanoma
[24] = system: MALME-3M melanoma
[25] = system: MCF7 breast
[26] = system: MDA-MB-231 breast
[27] = system: MDA-MB-435
[28] = system: MOLT-4 leukemia
[29] = system: NCI-H226 lung
[30] = system: NCI-H23 lung
[31] = system: NCI-H460 lung
[32] = system: NCI-H522 lung
[33] = system: NCI/ADR-RES ovarian
[34] = system: OVCAR-4 ovarian
[35] = system: OVCAR-5 ovarian
[36] = system: OVCAR-8 ovarian
[37] = system: PC-3 prostate
[38] = system: RPMI-8226 leukemia
[39] = system: RXF 393 renal
[40] = system: SF-268 CNS
[41] = system: SF-295 CNS
[42] = system: SF-539 CNS
[43] = system: SK-MEL-28 melanoma
[44] = system: SK-MEL-5 melanoma
[45] = system: SK-OV-3 ovarian
[46] = system: SN12C renal
[47] = system: SNB-19 CNS
[48] = system: SNB-75 CNS
[49] = system: SR leukemia
[50] = system: SW-620 colon
[51] = system: T-47D breast
[52] = system: TK-10 renal
[53] = system: U251 CNS
[54] = system: UACC-257 melanoma
[55] = system: UACC-62 melanoma
[56] = system: UO-31 renal
[57] = system: SK-MEL-2 melanoma

CCN(CC)CCN1C(=O)c2c(c3c4cc(Br)ccc4[nH]c3c3ccc4ccccc4c23)C1=O
GI50 [1]: 1.71 µM | TGI [1]: 3.11 µM | GI50 [2]: 1.64 µM | TGI [2]: 3.29 µM | GI50 [3]: 1.43 µM | TGI [3]: 2.79 µM | GI50 [4]: 1.14 µM | TGI [4]: 2.36 µM | GI50 [5]: 2.22 µM | TGI [5]: 4.07 µM | GI50 [6]: 1.25 µM | TGI [6]: 2.63 µM | GI50 [7]: 0.186 µM | TGI [7]: 1.75 µM | GI50 [8]: 1.43 µM | TGI [8]: 3.13 µM | GI50 [9]: 1.22 µM | TGI [9]: 2.56 µM | GI50 [10]: 1.38 µM | TGI [10]: 2.92 µM | GI50 [11]: 1.66 µM | TGI [11]: 3.43 µM | GI50 [12]: 1.25 µM | TGI [12]: 2.5 µM | GI50 [13]: 1.4 µM | TGI [13]: 3.08 µM | GI50 [14]: 1.58 µM | TGI [14]: 3.98 µM | GI50 [15]: 0.922 µM | TGI [15]: 2.25 µM | GI50 [16]: 1.32 µM | TGI [16]: 2.71 µM | GI50 [17]: 1.94 µM | TGI [17]: 5.02 µM | GI50 [18]: 1.35 µM | TGI [18]: 2.8 µM | GI50 [19]: 1.27 µM | TGI [19]: 2.82 µM | GI50 [20]: 0.273 µM | TGI [20]: 0.905 µM | GI50 [21]: 1.71 µM | TGI [21]: 3.5 µM | GI50 [22]: 1.25 µM | TGI [22]: 3.04 µM | GI50 [23]: 1.57 µM | TGI [23]: 2.96 µM | GI50 [24]: 1.56 µM | TGI [24]: 3.06 µM | GI50 [25]: 0.0439 µM | TGI [25]: 1.64 µM | GI50 [26]: 1.41 µM | TGI [26]: 3 µM | GI50 [27]: 1.63 µM | TGI [27]: 3.08 µM | GI50 [28]: 0.215 µM | TGI [28]: 1.92 µM | GI50 [29]: 5.64 µM | TGI [29]: 33.7 µM | GI50 [30]: 1.5 µM | TGI [30]: 3.32 µM | GI50 [31]: 0.476 µM | TGI [31]: 1.85 µM | GI50 [32]: 1.29 µM | TGI [32]: 2.67 µM | GI50 [33]: 1.43 µM | TGI [33]: 4.19 µM | GI50 [34]: 1.68 µM | TGI [34]: 3.22 µM | GI50 [35]: 1.76 µM | TGI [35]: 3.23 µM | GI50 [36]: 1.27 µM | TGI [36]: 2.66 µM | GI50 [37]: 1.31 µM | TGI [37]: 2.65 µM | GI50 [38]: 1.21 µM | TGI [38]: 3.23 µM | GI50 [39]: 1.58 µM | TGI [39]: 3 µM | GI50 [40]: 1.52 µM | TGI [40]: 3.53 µM | GI50 [41]: 1.61 µM | TGI [41]: 3.09 µM | GI50 [42]: 1.56 µM | TGI [42]: 3 µM | GI50 [43]: 1.73 µM | TGI [43]: 3.19 µM | GI50 [44]: 1.75 µM | TGI [44]: 3.18 µM | GI50 [45]: 1.5 µM | TGI [45]: 2.9 µM | GI50 [46]: 1.58 µM | TGI [46]: 3.14 µM | GI50 [47]: 1.43 µM | TGI [47]: 2.84 µM | GI50 [48]: 1.45 µM | TGI [48]: 2.84 µM | GI50 [49]: 0.102 µM | TGI [49]: 0.52 µM | GI50 [50]: 0.553 µM | TGI [50]: 2.16 µM | GI50 [51]: 0.7 µM | TGI [51]: 2.56 µM | GI50 [52]: 2.11 µM | TGI [52]: 3.56 µM | GI50 [53]: 1.02 µM | TGI [53]: 2.21 µM | GI50 [54]: 1.64 µM | TGI [54]: 3.01 µM | GI50 [55]: 1.64 µM | TGI [55]: 3.5 µM | GI50 [56]: 1.32 µM | TGI [56]: 2.62 µM

COc1cccc(N2CCN(C3=C(Cl)C(=O)c4ncccc4C3=O)CC2)c1
GI50 [1]: 5.02 µM | TGI [1]: 16.3 µM | GI50 [2]: 13.5 µM | TGI [2]: 26.4 µM | GI50 [3]: 15.5 µM | TGI [3]: 33 µM | GI50 [4]: 1.76 µM | TGI [4]: 3.19 µM | GI50 [5]: 6.75 µM | TGI [5]: 18.3 µM | GI50 [6]: 2.64 µM | TGI [6]: 8.15 µM | GI50 [8]: 1.87 µM | TGI [8]: 4.01 µM | GI50 [9]: 11.1 µM | TGI [9]: 23.1 µM | GI50 [10]: 2.05 µM | TGI [10]: 4.42 µM | GI50 [11]: 12.1 µM | TGI [11]: 25.5 µM | GI50 [12]: 1.73 µM | TGI [12]: 3.18 µM | GI50 [13]: 2.05 µM | TGI [13]: 5.6 µM | GI50 [14]: 1.75 µM | TGI [14]: 4.47 µM | GI50 [15]: 18.5 µM | TGI [15]: 33.2 µM | GI50 [16]: 1.63 µM | TGI [16]: 3.07 µM | GI50 [17]: 10 µM | TGI [17]: 51.5 µM | GI50 [18]: 12.2 µM | TGI [18]: 28.6 µM | GI50 [19]: 2.93 µM | TGI [19]: 9.52 µM | GI50 [20]: 2.3 µM | TGI [20]: 6.28 µM | GI50 [21]: 20.3 µM | TGI [21]: 41.7 µM | GI50 [22]: 1.62 µM | TGI [22]: 3.12 µM | GI50 [23]: 3.27 µM | TGI [23]: 13 µM | GI50 [24]: 1.84 µM | TGI [24]: 4.06 µM | GI50 [25]: 1.98 µM | TGI [25]: 5.86 µM | GI50 [26]: 1.68 µM | TGI [26]: 3.2 µM | GI50 [27]: 1.79 µM | TGI [27]: 3.34 µM | GI50 [29]: 14 µM | TGI [29]: 31.9 µM | GI50 [31]: 7.26 µM | TGI [31]: 26.7 µM | GI50 [32]: 1.73 µM | TGI [32]: 3.39 µM | GI50 [33]: 3.36 µM | TGI [33]: 15.5 µM | GI50 [34]: 1.73 µM | TGI [34]: 3.26 µM | GI50 [35]: 15.4 µM | TGI [35]: 30.3 µM | GI50 [36]: 2 µM | TGI [36]: 5.01 µM | GI50 [37]: 8.55 µM | TGI [37]: 22.3 µM | GI50 [38]: 2.27 µM | TGI [38]: 5.92 µM | GI50 [39]: 1.77 µM | TGI [39]: 3.25 µM | GI50 [40]: 13.1 µM | TGI [40]: 29.6 µM | GI50 [41]: 12.5 µM | TGI [41]: 26.2 µM | GI50 [42]: 11.4 µM | TGI [42]: 23.6 µM | GI50 [57]: 6.25 µM | TGI [57]: 19.3 µM | GI50 [43]: 3.3 µM | TGI [43]: 9.58 µM | GI50 [44]: 11.5 µM | TGI [44]: 23.8 µM | GI50 [45]: 15.4 µM | TGI [45]: 46.2 µM | GI50 [46]: 5.19 µM | TGI [46]: 20.2 µM | GI50 [47]: 16.2 µM | TGI [47]: 32.9 µM | GI50 [48]: 11.8 µM | TGI [48]: 24.7 µM | GI50 [49]: 1.8 µM | TGI [49]: 5.38 µM | GI50 [50]: 1.64 µM | TGI [50]: 3.32 µM | GI50 [52]: 4.18 µM | TGI [52]: 13.2 µM | GI50 [53]: 5.46 µM | TGI [53]: 19.5 µM | GI50 [54]: 2.12 µM | TGI [54]: 5.23 µM | GI50 [55]: 3.48 µM | TGI [55]: 12.3 µM | GI50 [56]: 1.64 µM | TGI [56]: 3.4 µM

— PubChem BioAssay (NCI)
